Data reported in PMC4694766, “Modeling-Enabled Characterization of Novel NLRX1 Ligands” (PLoS ONE, 2015).
Entries after “also recorded” stand apart in the source; their conditions may differ. Read-outs that look alike come from different tables or passages of the source.

Assays:
cNLRX1 (wild type) = target: T1, cNLRX1 (wild type) (Homo sapiens, UniProt Q86UT6); experiment: SPR (Biacore T200) direct binding to immobilized cNLRX1 wild type; conditions: for kon: NLRX1: WT, read-out: ka
T1 construct: cNLRX1 (AA 667–970) was cloned into pPinkHC-Alpha-SDK; polyhistidine (6x); made in house; host or cells: Pichia pastoris (Strain 4: ade2, prb1, pep4)
Procedure: White colonies on drop adenine media were screened for protein expression via small-scale induction and both pellets and supernatants were screened for expression via western blot using an anti-polyhistidine (6x) antibody (Immunology Consultants Laboratory, Inc). […] Every 24 hours post induction cells were fed 10 mL of methanol and 10% filter sterilized sorbitol for 4 days post induction. Cells were subsequently harvested at 10,000 x g for 15 min and were either used immediately or stored at -80°C.
Cells were re-suspended in 40 mL of ice-cold lysis buffer (50mM Sodium Phosphate, 200mM sodium chloride, 25mM Sucrose, 0.1% T-100, pH = 7.2) and sonicated 8 times at max amplitude using a 15 sec ON 45 sec OFF cycle. Lysed cells were centrifuged at 15,000 x g for 30 min at 4°C. Supernatant were loaded onto a 150 mL Super-loop and purified using a programmed immobilized metal affinity chromatography gradient protocol on the AKTA prime plus. Bound protein was washed with 40 column volumes of wash buffer (50 mM sodium phosphate buffer, 300 mM sodium chloride, 20 mM imidazole, pH 8.0) and eluted in 1 mL fractions over a 0.02-1M imidazole 40 mL gradient. Purity was assessed via SDS-PAGE. Proteins were further purified via gel filtration chromoatograhy using a Superdex75 column (16/600) in 50 mM sodium phosphate, 300 mM sodium chloride pH 8.0. […] Protein was dialyzed (1:1000) twice at 4°C for a minimum of 8 hours in appropriate buffers for downstream assays.
(§1) Direct binding experiments were performed via the Biacore T200 Surface Plasmon Resonance (SPR) Technology (Georgetown University). […] The cNLRX1 was immobilized to a CM4 or CM5 chip by amine coupling method. Two adjacent surfaces were activated by injection of a 1:1 (v:v) mixture of 0.1 M N-Hydroxysuccinimide (NHS) and 0.4 M 1-Ethyl-3-(3-dimethyl-aminopropyl)-carbodiimide hydrochloride (EDC) for 720 seconds. Experimental flow cell was then injected with the cNLRX1 that was diluted in 10 mM pH 4.0 sodium acetate buffer to a final concentration of 25 μg/mL. Both experimental and the reference flow cells were inactivated by injection of 1M Ethanolamine-HCl pH 8.0 for 720 seconds.
(§2) Negative control compound, 1,14-bis (3,b-dimethoxypheny1)-tetradecane, was tested at a concentration of 20 μM. Injection time was 60 seconds and dissociation time was 300 seconds. […] Data was analyzed by using the BiaEvaluation software (GE Healthcare) with 1:1 binding model for steady state affinity. Raw data was exported and graphed using Prizm for Mac v5.0d and excel.

[1] = target: T2, cNLRX1 ASP677, PHE680, PHE681, and GLU684 to alanine mutant (Mutant) (Homo sapiens, UniProt Q86UT6, D677A/E684A/F680A/F681A); experiment: SPR (Biacore T200) direct binding to immobilized Mutant cNLRX1
T2 construct: cNLRX1 (AA 667–970) was cloned into pPinkHC-Alpha-SDK; polyhistidine (6x); made in house
T2 sequence (Q86UT6 667-970 D677A/F680A/F681A/E684A limits assumed): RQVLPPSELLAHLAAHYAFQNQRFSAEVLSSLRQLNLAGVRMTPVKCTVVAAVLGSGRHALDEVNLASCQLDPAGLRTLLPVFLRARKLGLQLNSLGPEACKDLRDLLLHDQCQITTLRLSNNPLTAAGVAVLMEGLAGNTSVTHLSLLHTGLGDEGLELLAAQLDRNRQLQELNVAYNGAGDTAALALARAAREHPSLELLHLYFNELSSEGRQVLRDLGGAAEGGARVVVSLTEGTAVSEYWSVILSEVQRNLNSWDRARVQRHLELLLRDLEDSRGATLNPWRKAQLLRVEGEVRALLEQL
Procedure: as §1, §2

[2] = tested on: NF-κB p65 activity in BMDMs from wild type and Nlrx1-/- mice; experiment: NF-κB p65 ELISA (TransAM) on LPS-stimulated bone marrow derived macrophages; type: cell-based, mouse; conditions: LPS 1μg/ml 12 hours, then 40 μM compound 12 hours
Procedure: Bone marrow derived macrophages (BMDM)s were isolated from hind legs of wild type and Nlrx1-/- mice in sterile conditions and cultured for 7 days as described. […] Nuclear extraction was performed on colon homogenates using the Active Motif Nuclear Extraction Kit (Carlsbad, CA) as previously described. ELISA was performed on nuclear fractions using the Active Motif TransAM® NF-κB p65 kit according to the manufacturer’s instructions.
The NF-κB activation by NLRX1 ligands was detected and quantified by using the Trans-AM™ NF-κB p65 ELISA-based assay (Active Motif, Carlsbad, CA) as described in the manual of the Active Motif TransAM® NF-κB p65 kit.
Fig 4 Effect of NLRX1 disruption on NF-κB activation in Bone marrow derived macrophage (BMDM). […] Nuclear extraction was performed on colon homogenates using the Active Motif Nuclear Extraction Kit (Carlsbad, CA). ELISA was performed on both cytoplasmic and nuclear fractions using the Active Motif TransAM® NF-κB p65 kit according to the manufacturer’s instructions. Letter superscripts indicate significant (P-value < 0.05) differences by ANOVA.

DSS-induced colitis = conditions: for disease activity: 8% DSS six days, PUA 40 mg/kg oral gavage daily vs PBS
Procedure: C57BL/6J wild-type (WT) and Nlrx1-/- mice (n = 10) ranging from 8–10 weeks of age were administered 8% DSS (average […] molecular weight) in drinking water for six days. Control mice received tap water. […] On day 6, mice were euthanized via carbon dioxide narcosis with secondary cervical dislocation. All mice were weighed and scored daily. Clinical scores were based on physical appearance (0–3), fecal consistency (0–3), presence of rectal bleeding (0–4), and weight loss (0–3) and assigned a compounded score for overall disease activity (0–4).
Total RNA was isolated from whole mouse colon using a Qiagen (Germantown, MD) RNA isolation mini kit. Complementary DNA (cDNA) was generated from each sample (1 μg RNA) using the iScript cDNA synthesis kit (Bio-Rad). Standards were produced through a polymerase chain reaction on the cDNA with Taq DNA polymerase from Invitrogen. The amplicon was purified using the Mini-Elute PCR purification kit from Qiagen. Expression levels were obtained through quantitative real-time PCR on a Bio-Rad (Hercules, CA) CFX 96 Thermal Cycler using the Bio-Rad SYBR Green Supermix. For analysis, the starting amount of anti-microbial peptide cDNA was compared to that of beta-actin, as a control. cDNA concentrations for genes of interest were examined by RT-PCR as described.
Colonic samples were fixed in 10% buffered formalin, embedded in paraffin, processed routinely and sectioned at 5 μm. Sections were stained with hematoxylin and eosin (H&E) and then examined and graded using an Olympus microscope (Olympus America, Center Valley, PA) and ImagePro software. Sections were graded for leukocytic infiltration (0–4), epithelial erosion (0–4) and mucosal thickening (0–4).

PPARγ = conditions: cited from earlier work
[3] = tested on: DSS-induced colitis and spontaneous pan-enteritis in IL-10−/− mice; conditions: cited from earlier work
[4] = target: the molecule itself; experiment: SEC; Superdex 75 column (16/600) at 1 ml/min in 50 mM sodium phosphate, 300 mM sodium chloride, pH 8; blue dextran run alongside
[5] = Nlrx1-/- mice, day six of DSS, PUA 40 mg/kg oral gavage
[6] = WT mice, day six of DSS, PUA 40 mg/kg oral gavage

With CCCC\C=C/C=C/C=C\CCCCCCCC(=O)O [PUA, punicic acid] the Kd (cNLRX1 (wild type)) was 14.6 µM, the kon (cNLRX1 (wild type); SPR) was 2320 M⁻¹ s⁻¹ and the “equilibrium constant of dissociation (KD)” value [1] was 338 µM. The NF-κB activity ([2]; Nlrx1-/- BMDMs) was “abrogates the effect”, the NF-κB activity ([2]; wild type BMDMs) was “suppressed the NF-κB activity” and the disease activity (DSS-induced colitis; Nlrx1-/- mice) was “no observable inhibition of colitis”. The “TNFα mRNA expression in whole colon” value (DSS-induced colitis; [5]) was “overall unaffected”, the “colon histopathology (inflammatory amelioration)” value (DSS-induced colitis; [5]) was “failed to show any inflammatory amelioration” and the disease activity (DSS-induced colitis; WT mice) was “significant symptom regulation”. For the same molecule, the “TNFα mRNA expression in whole colon” value (DSS-induced colitis; [6]) was “significantly lower”, the “colon histopathology scores (epithelial erosion, leukocytic infiltration, mucosal thickening)” value (DSS-induced colitis; [6]) was “significantly lower scores” and the “binding and activation of PPARγ” value (PPARγ) was “robustly bind and activate PPARγ”. The effect on colitis ([3]; DSS-induced colitis and spontaneous pan-enteritis in IL-10−/− mice) was “ameliorate DSS-induced colitis and spontaneous pan-enteritis”.

With COc1cc(CCCCCCCCCCCCCCc2cc(OC)cc(OC)c2)cc(OC)c1 [1,14-bis (3,b-dimethoxypheny1)-tetradecane, reference compound] the “binding to cNLRX1 by SPR (in words)” value (cNLRX1 (wild type); ssRNA 0.5-8 μM, negative control injected at 20 μM) was “failed to bind cNLRX1; also recorded: No binding was observed”.

In the case of CC/C=C\C/C=C\C/C=C\C/C=C\C/C=C\C/C=C\CCC(=O)O [DHA, docosahexaenoic acid], the Kd (cNLRX1 (wild type); SPR, cNLRX1 WT, read-out: equilibrium constant of dissociation (KD)) is reported as 2.3 µM, the NF-κB activity ([2]; Nlrx1-/- BMDMs) is reported as “abrogates the effect” and the NF-κB activity ([2]; wild type BMDMs) is reported as “suppressed the NF-κB activity”.

With CCCCC=CC=CC=CCCCCCCCC(=O)O [ESA, eleostearic acid] the Kd (cNLRX1 (wild type)) was 13.3 µM, the kon (cNLRX1 (wild type); SPR) was 3420 M⁻¹ s⁻¹ and the “equilibrium constant of dissociation (KD)” value [1] was 170 µM. The “effect on gut inflammation” value [3] was “able to regulate gut inflammation”.

B1: C-terminal fragment of the human NLRX1 (cNLRX1), AA 667-970 (domain or fragment, UniProt Q86UT6 667-970, looked up)
chain: RQVLPPSELLDHLFFHYEFQNQRFSAEVLSSLRQLNLAGVRMTPVKCTVVAAVLGSGRHALDEVNLASCQLDPAGLRTLLPVFLRARKLGLQLNSLGPEACKDLRDLLLHDQCQITTLRLSNNPLTAAGVAVLMEGLAGNTSVTHLSLLHTGLGDEGLELLAAQLDRNRQLQELNVAYNGAGDTAALALARAAREHPSLELLHLYFNELSSEGRQVLRDLGGAAEGGARVVVSLTEGTAVSEYWSVILSEVQRNLNSWDRARVQRHLELLLRDLEDSRGATLNPWRKAQLLRVEGEVRALLEQL
notes: NLRX1, human, C-terminal fragment, AA 667-970; Cloned into pPinkHC-Alpha-SDK; The vector may add a secretion signal, but the protein was purified from lysed cells; also called cNLRX1 wildtype; cNLRX1 (WT)
B1: binds [4].
